Source: patent US8501450B2, “Hepatitis C virus variants” (priority 2005, dated 2013)
Where “and” joins values, the source holds several entries; their conditions need not be identical. Equal values may be shown once.

Columns and labels:
[1] = target: HCV NS3 protease T54A mutant (UniProt P27958, T1080A, species not given); details: enzyme IC50 vs genotype 1a HCV-H reference strain
[2] = target: HCV NS3 protease A156T mutant (UniProt P27958, A1182T, species not given); details: enzyme IC50 vs genotype 1a HCV-H reference strain
[3] = tested on: wild-type HCV replicon Con1-mADE cells; details: for Fold change of replicon IC50: wild-type replicon relative to itself
Text: (§1) The stable wild-type (mADE) and variant HCV sub-genomic replicon cell lines were generated using the T7 RNA runoff transcripts from the corresponding high efficiency Con1 replicon plasmids.
(§2) The stable wild-type and variant HCV sub-genomic replicon cell lines were generated using the 17 RNA runoff transcripts from the corresponding high efficiency Con1 replicon plasmids.

[4] = tested on: wild-type HCV replicon Con1-mADE cells; assay: microbe, parasite or virus in culture; details: Hepatitis C virus, 48 h, read-out: Replicon IC50
Text: as §1, §2

[5] = tested on: HCV replicon cells, NS3 R155T variant; details: for Fold change of replicon IC50: R155T IC50 divided by wild-type replicon IC50
Text: as §1, §2

[6] = tested on: HCV variant mixture in patient plasma; assay: Average phenotype for each patient; type: in vivo, patients; details: for Average Phenotype: individual subjects
Text: The genotypic analyses performed here allowed a detailed examination of the relative proportion of different resistant mutants within each patient. To better understand the level of phenotypic resistance conferred by these viral mixtures, exploratory analyses were done to obtain an average phenotype for each patient. The percent of virions with a given single or double mutation was multiplied by the average fold change in enzyme IC50 for that given mutant (Table 3), and then all values were added for each patient. […] An analysis correlating pharmacokinetic data with resistance patterns is currently underway.

[7] = tested on: HCV replicon cells, NS3 R155K variant
Text: as §1, §2

[8] = tested on: HCV replicon cells, NS3 R155M variant
Text: as §1, §2

[9] = patients that continued to decline, follow-up
[10] = plateau group of patients, Day 14
[11] = rebound group of patients, Day 14
[12] = rebound group of patients, follow-up

Compound: COc1ccc2c(O[C@@H]3C[C@H]4C(=O)N[C@]5(C(=O)O)C[C@H]5/C=C\CCCCC[C@H](NC(=O)OC5CCCC5)C(=O)N4C3)cc(-c3csc(NC(C)C)n3)nc2c1 [BILN 2061]
- Fold change [1]: 2.3 fold
- Fold change [2]: >183 fold

Compound: NC(=O)c1ncn([C@@H]2O[C@H](CO)[C@@H](O)[C@H]2O)n1 [Ribavirin, 1-beta-D-ribofuranosyl-1H-1,2,4-triazole-3-carboxamide]
- Fold change of replicon IC50 [3]: 1.0 ± 0.3 fold
- IC50 [4]: 58 ± 18 µM
- Fold change of replicon IC50 [5]: 0.6 ± 0.3 fold

Compound: CCC[C@H](NC(=O)[C@@H]1[C@H]2CCC[C@H]2CN1C(=O)[C@@H](NC(=O)[C@@H](NC(=O)c1cnccn1)C1CCCCC1)C(C)(C)C)C(=O)C(=O)NC1CC1 [VX-950]
- Average Phenotype ([6]; 450 mg, FU (7-10 days after ETR)): 28.94 and 3.13 and 8.65 and 1.14 and 0.83 and 29.43 and 14.81
- Average Phenotype ([6]; 750 mg, ETR (Day 14)): 466.14 and 466.00
- Average Phenotype ([6]; 750 mg, FU (7-10 days after ETR)): 9.33 and 45.74 and 126.48 and 9.65 and 3.17 and 4.92 and 0.00
- Average Phenotype ([6]; 1250 mg, ETR (Day 14)): 10.15 and 26.13 and 9.38 and 14.39 and 14.59 and 47.49 and 147.96 and 25.96 and 466.00
- Average Phenotype ([6]; 1250 mg, FU (7-10 days after ETR)): 9.39 and 26.03 and 10.65 and 12.33 and 15.28 and 15.38 and 7.93 and 1.87 and 30.97
- Average phenotype, mean value [6, 9]: 4
- Average phenotype, range [6, 9]: 0-10
- Average phenotype, mean value [6, 10]: 272
- Average phenotype, range [6, 10]: 26-466
- Average phenotype, mean value ([6]; plateau group of patients, follow-up): 32
- Average phenotype, mean value [6, 11]: 27
- Average phenotype, range [6, 11]: 6-70
- Average phenotype, mean value [6, 12]: 15
- Average phenotype, range [6, 12]: 3-29
- IC50 [4]: 0.485 ± 0.108 µM

Compound: IFN-α
- Fold change of replicon IC50 [3]: 1.0 ± 0.1 fold
- Replicon IC50 ([3]; wild-type replicon, 48-h assay, mean ± SD of three experiments): 11.6 ± 1.1 U/ml
- Fold change of replicon IC50 ([7]; R155K IC50 divided by wild-type replicon IC50): 1.3 ± 1.1 fold
- Replicon IC50 ([7]; R155K replicon, 48-h assay, mean ± SD of three experiments): 15.2 ± 12.3 U/ml
- Fold change of replicon IC50 [5]: 0.4 ± 0.3 fold
- Replicon IC50 ([5]; R155T replicon, 48-h assay, mean ± SD of three experiments): 4.8 ± 3.3 U/ml
- Fold change of replicon IC50 ([8]; R155M IC50 divided by wild-type replicon IC50): 0.4 ± 0.1 fold
- Replicon IC50 ([8]; R155M replicon, 48-h assay, mean ± SD of three experiments): 4.9 ± 1.0 U/ml
